Test results: patent publication US20240122182A1, “PESTICIDALLY ACTIVE HETEROCYCLIC DERIVATIVES WITH SULFUR CONTAINING SUBSTITUENTS” (SYNGENTA CROP PROTECTION AG, priority 2021, published 2024)

Experiments:
Type in all cases: in vivo
[1] = system: Bemisia tabaci (Cotton White Fly); assay: Activity against Bemisia tabaci (cotton white fly), cotton leaf discs sprayed; details: foliar, 144 h, application rate of 200 ppm, adult white flies, 6 days after incubation
Description: Cotton leaf discs were placed on agar in 24-well microtiter plates and sprayed with aqueous test solutions prepared from 10′000 ppm DMSO stock solutions. After drying the leaf discs were infested with adult white flies. The samples were checked for mortality 6 days after incubation.

[2] = system: Chilo suppressalis (Striped Rice Stemborer); assay: Activity against Chilo suppressalis (striped rice stemborer), artificial diet; details: 144 h, application rate of 200 ppm, L2 larvae, 6 days after infestation, read-out: control (mortality, anti-feeding effect, growth inhibition)
Description: 24-well microtiter plates with artificial diet were treated with aqueous test solutions prepared from 10′000 ppm DMSO stock solutions by pipetting. After drying, the plates were infested with L2 larvae (6-8 per well). The samples were assessed for mortality, anti-feeding effect, and growth inhibition in comparison to untreated samples 6 days after infestation. Control of Chilo suppressalis by a test sample is given when at least one of the categories mortality, anti-feedant effect, and growth inhibition is higher than the untreated sample.

[3] = system: Diabrotica Balteata (Corn Root Worm); assay: Activity against Diabrotica balteata (corn root worm), maize sprouts sprayed; details: 96 h, application rate of 200 ppm, L2 larvae, 4 days after infestation, read-out: effect in at least one of the two categories (mortality or growth inhibition)
Description: Maize sprouts placed onto an agar layer in 24-well microtiter plates were treated with aqueous test solutions prepared from 10′000 ppm DMSO stock solutions by spraying. After drying, the plates were infested with L2 larvae (6 to 10 per well). The samples were assessed for mortality and growth inhibition in comparison to untreated samples 4 days after infestation.

[4] = system: Euschistus heros (Neotropical Brown Stink Bug); assay: Activity against Euschistus heros (neotropical brown stink bug), soybean leaves sprayed; details: 120 h, application rate of 200 ppm, N2 nymphs, 5 days after infestation, read-out: effect in at least one of the two categories (mortality or growth inhibition)
Description: Soybean leaves on agar in 24-well microtiter plates were sprayed with aqueous test solutions prepared from 10′000 ppm DMSO stock solutions. After drying the leaves were infested with N2 nymphs. The samples were assessed for mortality and growth inhibition in comparison to untreated samples 5 days after infestation.

[5] = system: Myzus persicae (Green Peach Aphid); assay: Activity against Myzus persicae (green peach aphid), feeding/contact activity; details: 144 h, application rate of 200 ppm, mixed ages, 6 days after infestation
Description: Sunflower leaf discs were placed onto agar in a 24-well microtiter plate and sprayed with aqueous test solutions prepared from 10′000 ppm DMSO stock solutions. After drying, the leaf discs were infested with an aphid population of mixed ages. The samples were assessed for mortality 6 days after infestation.

[6] = system: Myzus persicae (Green Peach Aphid); assay: Activity against Myzus persicae (green peach aphid), systemic activity; details: 144 h, test rate of 24 ppm, pea seedling roots in test solution, 6 days
Description: Roots of pea seedlings infested with an aphid population of mixed ages were placed directly into aqueous test solutions prepared from 10′000 DMSO stock solutions. The samples were assessed for mortality 6 days after placing seedlings into test solutions.

[7] = system: Plutella xylostella (Diamond Back Moth); assay: Activity against Plutella xylostella (diamond back moth), artificial diet; details: 192 h, application rate of 200 ppm, eggs, 8 days after infestation, read-out: effect in at least one of the two categories (mortality or growth inhibition)
Description: 24-well microtiter plates with artificial diet were treated with aqueous test solutions prepared from 10′000 ppm DMSO stock solutions by pipetting. After drying, Plutella eggs were pipetted through a plastic stencil onto a gel blotting paper and the plate was closed with it. The samples were assessed for mortality and growth inhibition in comparison to untreated samples 8 days after infestation.

[8] = system: Spodoptera littoralis (Egyptian Cotton Leaf Worm); assay: Activity against Spodoptera littoralis (Egyptian cotton leaf worm), cotton leaf discs sprayed; details: foliar, 72 h, application rate of 200 ppm, L1 larvae, 3 days after infestation, read-out: control (mortality, anti-feeding effect, growth inhibition)
Description: Cotton leaf discs were placed onto agar in 24-well microtiter plates and sprayed with aqueous test solutions prepared from 10′000 ppm DMSO stock solutions. After drying the leaf discs were infested with five L1 larvae. The samples were assessed for mortality, anti-feeding effect, and growth inhibition in comparison to untreated samples 3 days after infestation. Control of Spodoptera littoralis by a test sample is given when at least one of the categories mortality, anti-feedant effect, and growth inhibition is higher than the untreated sample.

[9] = system: Carpocapsa (Cydia) Pomonella (Codling Moth); assay: Activity against Carpocapsa (Cydia) pomonella (codling moth), larvicide, feeding/contact; details: 336 h, application rate of 12.5 ppm, L1 larvae, 14 days after infestation, read-out: effect in at least one of the two categories (mortality or growth inhibition)
Description: Diet cubes coated with paraffin were sprayed with diluted test solutions in an application chamber. After drying off the treated cubes (10 replicates) were infested with 1 L1 larvae. Samples were incubated at 26-27° C. and checked 14 days after infestation for mortality and growth inhibition. The following compounds gave an effect of at least 80% in at least one of the two categories (mortality or growth inhibition) at an application rate of 12.5 ppm: P1, P2, P3, P5, P9, P10, P11, P12, P14, P17, P19, P20, P21, P23, P24, P30, P31.

[10] = system: Nilaparvata lugens (Brown Plant Hopper); assay: Activity against Nilaparvata lugens (brown plant hopper), larvicide, systemic into water; details: 168 h, application rate of 12.5 ppm, N3 nymphs, 7 days after infestation
Description: Larvicide, systemic into water Rice plants cultivated in a nutritive solution were treated with the diluted test solutions into nourishing cultivation system. 1 day after application plants were infested with ˜20 N3 nymphs. 7 days after infestation samples were assessed for mortality and growth regulation.

CCS(=O)(=O)c1cc(C(C)(C)C#N)cnc1-c1cc2c(cn1)N(CC(F)(F)C(F)(F)F)C(=O)CC2 [P11, 2-[5-ethylsulfonyl-6-[2-oxo-1-(2,2,3,3,3-pentafluoropropyl)-3,4-dihydro-1,7-naphthyridin-6-yl]-3-pyridyl]-2-methyl-propanenitrile]
≥ 80%: mortality at 200 ppm [1] | mortality at 200 ppm [2] | percent effect (mortality or growth inhibition) at 200 ppm [3] | percent effect (mortality or growth inhibition) at 200 ppm [4] | mortality at 200 ppm [5] | mortality at 24 ppm [6] | percent effect (mortality or growth inhibition) at 200 ppm [7] | mortality at 200 ppm [8] | percent effect (mortality or growth inhibition) at 12.5 ppm [9] | mortality at 12.5 ppm [10]

CCS(=O)(=O)c1cc(C(C)(C)C#N)cnc1-c1cc2c(cn1)N(CC(F)(F)C(F)(F)F)C(=O)OC2 [P15, 2-[5-ethylsulfonyl-6-[2-oxo-1-(2,2,3,3,3-pentafluoropropyl)-4H-pyrido[3,4-d][1,3]oxazin-6-yl]-3-pyridyl]-2-methyl-propanenitrile]
≥ 80%: mortality at 200 ppm [2] | percent effect (mortality or growth inhibition) at 200 ppm [3] | percent effect (mortality or growth inhibition) at 200 ppm [4] | mortality at 200 ppm [5] | mortality at 24 ppm [6] | percent effect (mortality or growth inhibition) at 200 ppm [7] | mortality at 200 ppm [8]

CCS(=O)(=O)c1cc(N(C)C(C)=O)cnc1-c1cc2c(cn1)N(CC(F)(F)C(F)(F)F)C(=O)OC2 [P18, N-[5-ethylsulfonyl-6-[2-oxo-1-(2,2,3,3,3-pentafluoropropyl)-4H-pyrido[3,4-d][1,3]oxazin-6-yl]-3-pyridyl]-N-methyl-acetamide]
≥ 80%: mortality at 200 ppm [2] | mortality at 200 ppm [5] | mortality at 24 ppm [6] | percent effect (mortality or growth inhibition) at 200 ppm [7] | mortality at 200 ppm [8]

CCS(=O)(=O)c1cc(C2(C#N)CC2)cnc1-c1cc2c(cn1)N(CC(F)(F)C(F)(F)F)C(=O)OC2 [P3, 1-[5-ethylsulfonyl-6-[2-oxo-1-(2,2,3,3,3-pentafluoropropyl)-4H-pyrido[3,4-d][1,3]oxazin-6-yl]-3-pyridyl]cyclopropanecarbonitrile]
≥ 80%: mortality at 200 ppm [1] | mortality at 200 ppm [2] | percent effect (mortality or growth inhibition) at 200 ppm [3] | percent effect (mortality or growth inhibition) at 200 ppm [4] | mortality at 200 ppm [5] | percent effect (mortality or growth inhibition) at 200 ppm [7] | mortality at 200 ppm [8] | percent effect (mortality or growth inhibition) at 12.5 ppm [9] | mortality at 12.5 ppm [10]

CCS(=O)(=O)c1ccc(-c2ncccn2)nc1-c1cc2c(cn1)N(CC(F)(F)C(F)(F)F)C(=O)CC2 [P22, 6-(3-ethylsulfonyl-6-pyrimidin-2-yl-2-pyridyl)-1-(2,2,3,3,3-pentafluoropropyl)-3,4-dihydro-1,7-naphthyridin-2-one]
≥ 80%: mortality at 200 ppm [2] | percent effect (mortality or growth inhibition) at 200 ppm [3] | percent effect (mortality or growth inhibition) at 200 ppm [4] | mortality at 200 ppm [5] | mortality at 24 ppm [6] | percent effect (mortality or growth inhibition) at 200 ppm [7] | mortality at 200 ppm [8]

CCS(=O)(=O)c1cc(C2(C#N)CC2)cnc1-c1cc2c(cn1)N(CC(F)(F)C(F)(F)F)C(=O)CC2 [P12, 1-[5-ethylsulfonyl-6-[2-oxo-1-(2,2,3,3,3-pentafluoropropyl)-3,4-dihydro-1,7-naphthyridin-6-yl]-3-pyridyl]cyclopropanecarbonitrile]
≥ 80%: mortality at 200 ppm [1] | mortality at 200 ppm [2] | percent effect (mortality or growth inhibition) at 200 ppm [3] | percent effect (mortality or growth inhibition) at 200 ppm [4] | mortality at 200 ppm [5] | mortality at 24 ppm [6] | percent effect (mortality or growth inhibition) at 200 ppm [7] | mortality at 200 ppm [8] | percent effect (mortality or growth inhibition) at 12.5 ppm [9] | mortality at 12.5 ppm [10]

CCS(=O)(=O)c1cc(C2(C#N)CC2)cnc1-c1cc2c(cn1)N(CC(F)(F)F)C(=O)CC2 [P2, 1-[5-ethylsulfonyl-6-[2-oxo-1-(2,2,2-trifluoroethyl)-3,4-dihydro-1,7-naphthyridin-6-yl]-3-pyridyl]cyclopropanecarbonitrile]
≥ 80%: mortality at 200 ppm [1] | mortality at 200 ppm [2] | percent effect (mortality or growth inhibition) at 200 ppm [3] | percent effect (mortality or growth inhibition) at 200 ppm [4] | mortality at 200 ppm [5] | mortality at 24 ppm [6] | percent effect (mortality or growth inhibition) at 200 ppm [7] | mortality at 200 ppm [8] | percent effect (mortality or growth inhibition) at 12.5 ppm [9] | mortality at 12.5 ppm [10]

CCS(=O)(=O)c1cccnc1-c1cc2c(cn1)N(CC(F)(F)C(F)(F)F)C(=O)CC2 [P1, 6-(3-ethylsulfonyl-2-pyridyl)-1-(2,2,3,3,3-pentafluoropropyl)-3,4-dihydro-1,7-naphthyridin-2-one]
≥ 80%: mortality at 200 ppm [2] | percent effect (mortality or growth inhibition) at 200 ppm [3] | percent effect (mortality or growth inhibition) at 200 ppm [4] | mortality at 200 ppm [5] | mortality at 24 ppm [6] | percent effect (mortality or growth inhibition) at 200 ppm [7] | mortality at 200 ppm [8] | percent effect (mortality or growth inhibition) at 12.5 ppm [9] | mortality at 12.5 ppm [10]

CCS(=O)(=O)c1cc(C2(C#N)CC2)cnc1-c1cc2c(cn1)N(CC(F)(F)F)C(=O)OC2 [P34, 1-[5-ethylsulfonyl-6-[2-oxo-1-(2,2,2-trifluoroethyl)-4H-pyrido[3,4-d][1,3]oxazin-6-yl]-3-pyridyl]cyclopropanecarbonitrile]
≥ 80%: percent effect (mortality or growth inhibition) at 200 ppm [3] | mortality at 200 ppm [5] | mortality at 24 ppm [6] | percent effect (mortality or growth inhibition) at 200 ppm [7]

CCS(=O)(=O)c1cc(N(C)C(C)=O)cnc1-c1cc2c(cn1)N(CC(F)(F)C(F)(F)F)C(=O)CC2 [P8, N-[5-ethylsulfonyl-6-[2-oxo-1-(2,2,3,3,3-pentafluoropropyl)-3,4-dihydro-1,7-naphthyridin-6-yl]-3-pyridyl]-N-methyl-acetamide]
≥ 80%: mortality at 200 ppm [2] | percent effect (mortality or growth inhibition) at 200 ppm [4] | mortality at 200 ppm [5] | mortality at 24 ppm [6] | percent effect (mortality or growth inhibition) at 200 ppm [7] | mortality at 200 ppm [8]
